Data taken from patent US20070059382A1 (Board of Regents, Univ. and Comm. College System of …, priority 2005, published 2007).
Values joined by “and” are separate entries in the source; they are usually repeats but may differ in a detail not shown here. Equal entries are not always repeated. “Also recorded” adds a separate entry of the source. Where two headings read alike, the source gives them in different places.

What was measured:
[1] = tested on: MCF-7; experiment: Cell attachment (reattachment after trypsin harvest)
[2] = tested on: ZR-75-1; experiment: as above
[3] = tested on: ZR-75-1; experiment: Detachment of growing cells (attached and floating cells); assay type: cell-based, human; conditions: seven days, 0.5 to 10 mM boric acid
Excerpt: We quantified the attached and floating cells. The data is shown below in FIG. 7.

[4] = tested on: ZR-75-1
[5] = tested on: PC-3; conditions: cited from earlier work
[6] = tested on: SK-BR-3
[7] = tested on: DU-145; conditions: cited from earlier work
[8] = in vivo; cited from earlier work
[9] = tested on: DU-145 cells; conditions: cited from earlier work
[10] = tested on: cyclins A-E and MAPK proteins; conditions: cited from earlier work
[11] = tested on: MCF-7; conditions: 1 mM
[12] = tested on: HeLa cells; experiment: Growth of HeLa cells (express the NaBC1 transporter); assay type: cell-based; conditions: 1 mM
[13] = tested on: LNCaP tumor; conditions: nude mice, 1.7 and 9.0 mgB/Kg/day; cited from earlier work
[14] = tested on: LNCaP; conditions: cited from earlier work
[15] = humans, chronic (about 1 g of boric acid); cited from earlier work
[16] = tested on: non-tumorigenic prostate cell lines; conditions: cited from earlier work
[17] = in vivo; cited from earlier work; remark: listed apart in the source
[18] = treated three days, then boric acid removed

SMILES: [Cl][Mn][Cl] [MnCl2, reference compound]
- effect on cell attachment [1]: stimulates attachment
- percentage of cells that had reattached [1]: 53.9 ± 12.3% and 69.4 ± 2.9% and 74.9 ± 3.6% and 81.5 ± 9.9%
- effect on cell attachment [2]: stimulates attachment
- percentage of cells that had reattached [2]: 42.6 ± 12.0% and 67.3 ± 12.0% and 70.2 ± 1.4% and 77.8 ± 13.6%

SMILES: OB(O)O [boric acid]
- cell detachment / floating cells [3]: causing breast cancer cells to detach and undergo apoptosis; also recorded: cells were seen floating in the media
- growth inhibition ([4]; 1 mM): sensitive; also recorded: growth inhibition; also recorded: very sensitive
- time to resume normal growth rate after boric acid removal [4, 18]: about three
- effect on cell attachment ([1]; MCF-7, 1 mM (Experiments 3, 4)): did not
- percentage of cells that had reattached ([1]; MCF-7, 30 min, 1 mM each compound): 53.5 ± 3.0%
- percentage of cells that had reattached ([1]; MCF-7, 60 min, 1 mM each compound): 92.6 ± 9.1%
- percentage of cells that had reattached ([1]; MCF-7, 90 min, 1 mM each compound): 105.7 ± 6.8%
- percentage of cells that had reattached ([1]; MCF-7, 120 min, 1 mM each compound): 97.5 ± 4.1%
- growth inhibition [5]: inhibits the growth
- growth inhibition ([5]; listed as BA): much less sensitive
- growth inhibition ([6]; 1 mM): growth inhibition
- time to resume normal growth rate after boric acid removal [6, 18]: about three
- growth inhibition [7]: inhibits the growth
- growth inhibition ([7]; listed as BA): sensitive
- fraction excreted in the urine [8]: about 85%
- half-life [8]: about 21 hrs
- time to excretion in the urine after ingestion [8]: ≤ 24 h
- effect on cell attachment ([2]; ZR-75-1, 1 mM (Experiments 1, 2)): inhibit the attachment; also recorded: inhibited their reattachment
- effect on cell attachment ([2]; ZR-75-1, 1 mM (Experiments 1, 2), listed as BA): did not
- percentage of cells that had reattached ([2]; ZR-75-1, 30 min, 1 mM each compound): 24.5 ± 5.2%
- percentage of cells that had reattached ([2]; ZR-75-1, 60 min, 1 mM each compound): 74.1 ± 26.1%
- percentage of cells that had reattached ([2]; ZR-75-1, 90 min, 1 mM each compound): 98.2 ± 34.0%
- percentage of cells that had reattached ([2]; ZR-75-1, 120 min, 1 mM each compound): 104.0 ± 16.1%
- adhesion, migration and invasion potential [9]: reduced
- change in cyclins A-E and MAPK proteins [10]: dose-dependent reduction
- growth inhibition [11]: not growth inhibited; also recorded: no growth inhibition; also recorded: much less sensitive
- growth inhibition [12]: very little inhibition
- inhibition of LNCaP tumor growth [13]: about 30%
- growth inhibition [14]: inhibits the growth
- growth inhibition ([14]; listed as BA): much less sensitive
- chronic intake with no adverse effects [15]: 2.5 mg/kg/day
- growth inhibition [16]: not

SMILES: [B] [boron]
- Tolerable Upper Intake Level (UL) [17]: 20 mg/day
